Measurements: US7732611B2, “Amine salt of carbostyril derivative” (Otsuka Pharmaceutical Co., Ltd., priority 2004, dated 2010)

How the values were obtained:
[1] = Solubility test at 25° C. of the salt in a preparation prepared when used without isolating the salt (HPLC); type: physicochemical; settings: water, Compound A plus equimolar amine, salt not isolated, shaken 7 days, 0.2 μm filter
Experimental: And then as to a sample to which arginine was added, the suspension was filtered through a 0.2 μm membrane filter. […] And then the mixture was filtrated through a 0.2 μm membrane filter. According to the same method as Example 8, the solubilities (%) of each salt was measured by HPLC.

[2] = Water-solubility test at 25° C. of the isolated salts (HPLC); type: physicochemical; settings: shaken 3 hours (5 days for meglumine salt), filtered, concentration of Compound A by HPLC
Experimental: Preparation of the Test Solution
After shaking, the mixture was filtered through a 0.45 μm membrane filter (0.2 μm for meglumine salt). 1 mL of the filtrate was precisely pipetted and thereto was added 50% DMF so as to be totally 50 mL in precise. 2 mL of this solution was precisely pipetted and thereto was added 50% DMF so as to be totally 20 mL in precise to give a sample solution.
Preparation of the Standard Solution
Using each 10 μL of the sample solutions and the standard solutions, the liquid chromatographic analyses were carried out in the following conditions.

Question: For CC(O)CNCC(C)O.O=C(NC(Cc1cc(=O)[nH]c2ccccc12)C(=O)O)c1ccc(Cl)cc1 (centres unmarked) [Compound A·diisopropanolamine salt, 2-(4-chlorobenzoylamino)-3-(2-quinolon-4-yl)propionic acid.diisopropanolamine salt], which “Solubility (%)” value [1] is on record?
Answer: >7.4%

Question: What about the “Solubility (%)” value [2] of the same molecule?
Answer: 2.9%
